# Results as given in patent US6710090B2, “Inhibitory or blocking agents of molecular generating and/or inducing functions” (priority 1994, dated 2004).
# Test: Comparison of 4,4-dimethyl-2-cyclohexen-1-one with Yoshixol on all parameters
# Excerpt: In addition, higher dosage was needed to be obtained qualitatively an identical effect to the above-mentioned effect of Yoshixol. Then, the concentration of 4,4-dimethyl-2-cyclohexen-1-one was required about 30-100 times dosage of Yoshixol on the biological samples, and about 10-50 times dosage of Yoshixol on lower molecular substance and macromolecular substance of non-living samples.
smiles,measurement,setting,value
"CC1(C)C=CC(=O)CC1 [4,4-dimethyl-2-cyclohexen-1-one]","control, inhibit and/or block function generated by multi-dimensional structure",all parameters demonstrated by Yoshixol,similarly to Yoshixol
same,concentration required for an effect identical to Yoshixol,on the biological samples,30-100 times dosage of Yoshixol
